The values below come from US20050065071A1, “Cyclic analogs of human parathyroid hormone for the treatment of conditions characterized by hyperproliferative skin cells” (National Research Council of Canada, priority 2003, published 2005).

The subject of the assay is skin cells. The assay is described as follows: Topical administration to SKH-1 hairless mice, skin cell proliferation by ^3H-thymidine incorporation. In kind it is in vivo. As to conditions: 1 μg, 10 μg or 50 μg once a day, 7 days, analog given with Novasome, compared with hPTH-(1-34) and untreated control (FIG. 6). On the procedure:
FIG. 6 is a histogram showing the effects of no treatment (Control) or of topical administration of 1 μg, 10 μg, or 50 μg of hPTH-(1-34) (1-34) or [Leu^27]cyclo(Glu^22-Lys^26)-hPTH-(1-31)-NH2 (c1-c31) to SKH-1 mice on the proliferation of skin cells, as measured by ^3H-thymidine incorporation (counts per minute/μg protein) in SKH-1 mice after 7 days of administration.
SKH-1 hairless mice were administered the human parathyroid hormone hPTH analog [Leu^27]cyclo(Glu^22-Lys^26)-hPTH-(1-31)-NH2 with Novasome (a liposomal formulation available, for example, from IGI, Inc., Buena, N.J.) or hPTH-(1-34) at dosages of 1 μg, 10 μg, or 50 μg once a day, or were left untreated (control). On day 7, the mice were injected twice with ^3H-thymidine, and on day 8, the mice were injected with ^3H-thymidine and bromodeoxyuridine (1.5 mg/mouse) and sacrificed within 3 hours. ^3H-thymidine incorporation was then assessed, using standard methods. The results of this study are shown in FIG. 6, which is a histogram showing the effects of no treatment (Control) or of topical administration of 1 μg, 10 μg, or 50 μg of hPTH-(1-34) (1-34) or [Leu^27]cyclo(Glu^22-Lys^26)-hPTH-(1-31)-NH2 (c1-c31) on proliferation of skin cells, as measured by ^3H-thymidine incorporation (counts per minute/μg protein) in SKH-1 mice. […]

Bridges are numbered along the chain shown (N, C = ends). Where no end group is shown, it is not given here.

“[Leu^27]cyclo(Glu^22-Lys^26)-hPTH-(1-31)-NH2 (SVSEIQLMHNLGKHLNSMERVEWLRKLLQDV-NH2; lactam 22-26; N-terminus assumed; SMILES CC[C@H](C)[C@H](NC(=O)[C@H](CCC(=O)O)NC(=O)[C@H](CO)NC(=O)[C@@H](NC(=O)[C@@H](N)CO)C(C)C)C(=O)N[C@@H](CCC(N)=O)C(=O)N[C@@H](CC(C)C)C(=O)N[C@@H](CCSC)C(=O)N[C@@H](Cc1c[nH]cn1)C(=O)N[C@@H](CC(N)=O)C(=O)N[C@@H](CC(C)C)C(=O)NCC(=O)N[C@@H](CCCCN)C(=O)N[C@@H](Cc1c[nH]cn1)C(=O)N[C@@H](CC(C)C)C(=O)N[C@@H](CC(N)=O)C(=O)N[C@@H](CO)C(=O)N[C@@H](CCSC)C(=O)N[C@@H](CCC(=O)O)C(=O)N[C@@H](CCCNC(=N)N)C(=O)N[C@H](C(=O)N[C@H]1CCC(=O)NCCCC[C@@H](C(=O)N[C@@H](CC(C)C)C(=O)N[C@@H](CC(C)C)C(=O)N[C@@H](CCC(N)=O)C(=O)N[C@@H](CC(=O)O)C(=O)N[C@H](C(N)=O)C(C)C)NC(=O)[C@H](CCCNC(=N)N)NC(=O)[C@H](CC(C)C)NC(=O)[C@H](Cc2c[nH]c3ccccc23)NC1=O)C(C)C)”: the “proliferation of skin cells, as measured by ^3H-thymidine incorporation” value was “significantly more effective at inhibiting ^3H-thymidine incorporation than hPTH-(1-34)”.

For the substance “cyclo(Lys^26-Asp^30) [Leu^27]-hPTH-(1-31)-NH2”, the “proliferation of skin cells, as measured by ^3H-thymidine incorporation” value was “Decreases Skin Cell Proliferation”.
